Data: patent US5824706A (priority 1995, dated 1998)
Read-outs that look alike come from different tables or passages of the source.

Experiments:
FluV-A = assay: microbe, parasite or virus in culture; assay type: cell-based, influenza virus A/Ishikawa/7/82 (H3N2)
RSV = assay: microbe, parasite or virus in culture; assay type: cell-based, RSV Long strain (type-A); conditions: human respiratory syncytial virus
MLSV = assay: microbe, parasite or virus in culture; assay type: cell-based, Measles virus (MLSV) Edmonston strain; conditions: Measles morbillivirus
FluV-B = assay: MTT antiviral assay, FluV-B in MDCK cells; assay type: cell-based, influenza virus B/Singapore/222/79; conditions: influenza B virus, read-out: EC50 FluV-B (Singapore)
RSV-A (FM-58-8) = assay: microbe, parasite or virus in culture; assay type: cell-based, RSV FM-58-8 (type-A); conditions: human respiratory syncytial virus; Table 3; fresh isolate; ^b data from one experiment
RSV-B (SM61-48) = assay: microbe, parasite or virus in culture; assay type: cell-based, RSV SM-61-48 (type-B); conditions: human respiratory syncytial virus; Table 3; fresh isolate; ^b data from one experiment
MPSV = assay: MTT antiviral assay, mumps virus in HMV-2 cells; assay type: cell-based, mumps virus (MPSV) ECXH-3 strain; conditions: Mumps orthorubulavirus, HMV-2, read-out: EC50 MPSV (EXCH-3)
PFluV-2 = assay: MTT antiviral assay, parainfluenzavirus type 2 in HMV-2 cells; assay type: cell-based, Greer strain; conditions: Table 3, average of 3 to 4 independent experiments, read-out: EC50 PFluV-2 (Greer)
PFluV-3 = assay: MTT antiviral assay, parainfluenzavirus type 3 in Vero cells; assay type: cell-based, C243 strain; conditions: Table 3, average of 3 to 4 independent experiments, read-out: EC50 PFluV-3 (C243)
HMV-2 cells = conditions: read-out: Cytotoxicity IC50 HMV-2, Table 3
in vitro [1] = conditions: dog, mdck
in vitro [2] = conditions: human, hep-2 cells
in vitro [3] = conditions: human, hmv-2 cells
in vitro [4] = conditions: monkey, vero cells, Cytotoxicity IC50 Vero, Table 3
[5] = viable cell counting (parentheses)

Work on `NC(=O)c1ncn([C@@H]2O[C@H](CO)[C@@H](O)[C@H]2O)n1` [Ribavirin] yielded an EC50 (FluV-A; Ishikawa, read-out: EC50 FluV-A (Ishikawa)) of 3.7 µM, an EC50 (FluV-A; MDCK, read-out: Antiviral activity, EC50 FluV-A) of 8.7 µM and an EC50 (RSV; Table 2, read-out: Antiviral activity, EC50 RSV) of 4.7 µM. For the same compound, the EC50 (RSV; Table 3, average of 3 to 4 independent experiments, read-out: EC50 RSV-A (Long)) was 4.7 µM, the EC50 (MLSV; HMV-2, read-out: Antiviral activity, EC50 MLSV) was 5.2 µM and the EC50 (MLSV; HMV-2, read-out: EC50 MLSV (Edmonston)) was 5.2 µM. It also gave an EC50 (FluV-B) of 5.1 µM, an EC50 (RSV-A (FM-58-8)) of 3.5 µM and an EC50 (RSV-B (SM61-48)) of 1.6 µM. For the same compound, the EC50 (MPSV) was 3.4 µM, the EC50 (PFluV-2) was 8.9 µM and the EC50 (PFluV-3) was 17.2 µM. It also gave a CC50 (HMV-2 cells; MTT method) greater than 100 µM, a CC50 (HMV-2 cells; [5]) greater than 100 µM and a CC50 (in vitro [1]; Cytotoxicity IC50 MDCK, Table 3, MTT method) greater than 200 µM. The CC50 (in vitro [1]; Cytotoxicity IC50 MDCK, Table 3, viable cell counting (parentheses)) was greater than 200 µM, the CC50 (in vitro [1]; Cytotoxicity, IC50 MDCK, Table 2) was greater than 100 µM and the CC50 (in vitro [2]; Cytotoxicity IC50 HEp-2, Table 3, MTT method) was 52.7 µM. It also gave a CC50 (in vitro [2]; Cytotoxicity IC50 HEp-2, Table 3, viable cell counting (parentheses)) greater than 200 µM, a CC50 (in vitro [2]; Cytotoxicity, IC50 HEp-2, Table 2) greater than 50 µM and a CC50 (in vitro [3]) greater than 100 µM. The CC50 (in vitro [4]; MTT method) was 100 µM and the CC50 (in vitro [4]; [5]) was greater than 200 µM.
